Experiments:
[1] = test system: human platelet aggregation; assay: Human platelet aggregation inhibitory activity (method of Pharmacological Test 1 in WO 94/21599); assay type: cell-based; conditions: human platelets, read-out: inhibition of human platelet aggregation, IC5. value
Method: (§1) GP IIb/IIIa Antagonistic Activity and Human Platelet Aggregation Inhibitory Activity
Human platelet aggregation inhibitory activity was measured for the compounds according to the present invention. The measurement of the human platelet aggregation activity was carried out according to the method described in Pharmacological Test 1 in WO 94/21599.

GP IIb/IIIa = GP IIb/IIIa (Homo sapiens, UniProt P05106+P08514); assay: GP IIb/IIIa antagonistic activity (method of Pharmacological Test 2 in WO 94/21599); assay type: binding
Method: as §1
GP IIb/IIIa antagonistic activity was measured for the compounds according to the present invention. The measurement of the GP IIb/IIIa antagonistic activity was carried out according to the method described in Pharmacological Test 2 in WO 94/21599.

[2] = molecular target: T1, integrin α5β1 (fibronectin receptor purified from the human placenta) (Homo sapiens, UniProt P05556+P08648); assay: α5β1 binding assay (fibronectin-fibronectin receptor binding assay); conditions: fibronectin binding to human placenta fibronectin receptor; read-out: α5β1 Binding inhibitory activity
T1 construct: a fibronectin receptor (protein content: 52.1 μg/ml) purified from the human placenta; from tissue; host or cells: human placenta
Method: (§2) Integrin α5β1 antagonistic activity (lethality) was measured for the compounds according to the present invention in a fibronectin-fibronectin receptor binding assay system in accordance with the method of Kouns et al. (W. C. Kouns, D. Kirchhofer, P. Hadvary, A. Edenhofer, T. Weller, G. Pfenninger, H. R. Baumgartner, L. K. Jennings, and B. Steiner, Blood, 80, 2539-2547 (1992)).
Specifically, a fibronectin receptor (protein content: 52.1 μg/ml) purified from the human placenta by the method of Pytela et al. (R. Pytela, M. D. Pierschbacher, S. Argraves, S. Suzuki, and E. Ruoslahti, Method in Enzymology, 144, 475-489 (1987)) was diluted 25 times with TBS (20 mM Tris-HCl, 150 mM NaCl, 1 mM CaCl2, 1 mM MgCl2, pH 7.4), and distributed and coated on wells (50 μl/well) of a plate (Maxisorp, Nunc, 96 well Immuno Plate). The plate was then allowed to stand at 4° C. for one day, washed twice with TBS (200 μl/well), and then subjected to blocking with TBS (150 μl/well) containing 3% skim milk (DIFCO) at 4° C. overnight. After washing twice with TBS (200 μl/well) containing 0.05% Tween-20 and then washing twice with TBS (200 μl/well), purification was carried out according to the method of E. Engvall et al. (E. Engvall, E. Ruoslahti, and E. J. Miller, J. Exp. Med., 147, 1584-1595 (1978)), and 50 […] of fibronectin adjusted to 0.2 μg/ml by the addition of TBS (TBS-Tween) containing 0.01% Tween-20 was mixed with 50 μl of each test compound adjusted to each concentration in the wells, and a reaction was allowed to proceed at room temperature for 3 hr. After the completion of the reaction, the wells were washed five times with TBS-Tween. A solution prepared by diluting a peroxidase-labeled fibronectin antibody (CAPPEL) 500 times with TBS-Tween was added in an amount of 50 μl per well, and a reaction was allowed to proceed at room temperature for 1.5 hr. After washing five times with TBS-Tween (200 μl/well), ABTS (SIGMA) adjusted to 1 mg/ml by the addition of a ten-fold diluted POD-buffer (ZYMED) was added in an amount of 50 μl/well, and a reaction was allowed to proceed for 5 to 10 min. A 0.1 M citric acid buffer (pH 4.3) containing 0.05% NaN3 was added in an amount of 50 μl/well to stop the reaction, followed by the measurement of the absorbance at 415 nm with a microplate reader (MTP 32, Corona Electric) (reference: 675 nm). The total binding was defined as the absorbance after a reaction using 50 μl of TBS-Tween instead of the test compound, and the non-specific binding (100% inhibition) was defined as the absorbance after a reaction using 50 μl of TBS-Tween containing 2×10^−3 M RGDS. The inhibition was calculated by the following equation: [formula]
(§3) IC50 was determined from a primary regression line of the logarithm of each concentration of the test compound and the logarithm of (100−inhibition)/inhibition.

[3] = molecular target: T2, integrin αvβ3 (vitronectin receptor purified from the human placenta) (Homo sapiens, UniProt P05106+P06756); assay: αvβ3 binding assay (vitronectin-vitronectin receptor binding assay); conditions: vitronectin binding to human placenta vitronectin receptor; read-out: integrin αvβ3 antagonistic activity, IC50 value
T2 construct: a vitronectin receptor (protein content: 118 μg/ml) purified from the human placenta; from tissue; host or cells: human placenta
Method: as §2, with “αvβ3” for “α5β1”, “activity” for “activity (lethality)”, “vitronectin-vitronectin” for “fibronectin-fibronectin”, “Jennings” for “Jennings,”
Specifically, a vitronectin receptor (protein content: 118 μg/ml) purified from the human placenta in accordance with the method of Pytela et al. (R. Pytela, M. D. Pierschbacher, S. Argraves, S. Suzuki, and E. Ruoslahti, Method in Enzymology, 144, 475-489 (1987)) was diluted 50 times with TBS (20 mM Tris-HCl, 150 mM NaCl, 1 mM CaCl2, 1 mM MgCl2, pH 7.4), and distributed and coated on wells (50 μl/well) of a plate (Maxisorp, Nunc, 96 well Immuno Plate). The plate was then allowed to stand at 4° C. for 1 day, washed twice with TBS (200 μl/well), and then subjected to blocking with TBS (150 μl/well) containing 1% bovine serum albumin (SIGMA) at 4° C. overnight. After washing twice with TBS (200 μl/well), 50 μl of vitronectin (CALBIOCHEM) adjusted to 0.2 μg/ml by the addition of TBS (TBS-Tween) containing 0.01% Tween-20 was mixed with 50 μl of each test compound adjusted to each concentration in wells, and a reaction was allowed to proceed at room temperature for 4 hr. After the completion of the reaction, the wells were washed five times with TBS-Tween. A solution prepared by diluting anti-vitronectin rabbit antiserum (CHEMICON) 500 times with TBS-Tween was added as a primary antibody in an amount of 50 μl/well, and a reaction was allowed to proceed at room temperature for 1.5 hr. After washing five times with 200 μl/well of TBS-Tween, a peroxidase (POD)-labeled anti-rabbit IgG antibody solution (CAPPEL) diluted 500 times with TBS-Tween was added as a secondary antibody in an amount of 50 μl/well, and a reaction was allowed to proceed at room temperature for 1.5 hr. After washing five times with TBS-Tween (200 μl/well), ABTS (2,2′-azino-bis(3-ethylbenzthiazoline-6-sulfonic acid), SIGMA) was adjusted to 1 mg/ml by the addition of a ten-fold diluted POD-buffer (ZYMED), and added in an amount of 50 μl/well, and a reaction was allowed to proceed for 5 to 10 min. A 0.1 M citric acid buffer (pH 4.3) containing 0.05% NaN3 was added in an amount of 50 μl/well to stop the reaction, followed by the measurement of the absorbance at 415 nm with a microplate reader (MTP 32, Corona Electric) (reference: 675 nm). The total binding was defined as the absorbance after a reaction using 50 μl of TBS-Tween instead of the test compound, and the non-specific binding (100% inhibition) was defined as the absorbance after a reaction using 50 μl of TBS-Tween containing 2×10^−3 M RGDS. The inhibition was calculated by the following equation: [formula]
as §3

T2 sequence (P06756 31-889 limits assumed): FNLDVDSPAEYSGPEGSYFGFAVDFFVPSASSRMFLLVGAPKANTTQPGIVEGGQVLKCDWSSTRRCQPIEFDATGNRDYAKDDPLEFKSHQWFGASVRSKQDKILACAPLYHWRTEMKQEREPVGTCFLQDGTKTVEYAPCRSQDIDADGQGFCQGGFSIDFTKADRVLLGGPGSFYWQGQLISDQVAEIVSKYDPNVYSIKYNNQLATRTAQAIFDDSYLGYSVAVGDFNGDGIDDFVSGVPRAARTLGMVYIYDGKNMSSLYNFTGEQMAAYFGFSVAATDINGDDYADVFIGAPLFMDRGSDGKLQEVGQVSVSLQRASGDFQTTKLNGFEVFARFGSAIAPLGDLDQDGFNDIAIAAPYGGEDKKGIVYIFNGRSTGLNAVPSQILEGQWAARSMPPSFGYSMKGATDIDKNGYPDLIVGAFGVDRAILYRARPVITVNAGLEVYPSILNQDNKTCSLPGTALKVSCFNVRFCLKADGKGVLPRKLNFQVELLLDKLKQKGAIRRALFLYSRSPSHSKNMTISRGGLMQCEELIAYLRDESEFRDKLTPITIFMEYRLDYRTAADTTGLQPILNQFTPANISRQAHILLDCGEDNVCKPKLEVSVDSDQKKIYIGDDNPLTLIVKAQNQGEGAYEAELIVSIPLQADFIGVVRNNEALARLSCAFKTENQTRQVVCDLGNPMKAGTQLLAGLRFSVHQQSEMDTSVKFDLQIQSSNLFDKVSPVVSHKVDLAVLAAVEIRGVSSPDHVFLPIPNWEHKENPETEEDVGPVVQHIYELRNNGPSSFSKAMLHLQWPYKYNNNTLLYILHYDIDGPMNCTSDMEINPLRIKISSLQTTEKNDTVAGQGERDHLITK
T2 sequence (P06756 891-1048 limits assumed): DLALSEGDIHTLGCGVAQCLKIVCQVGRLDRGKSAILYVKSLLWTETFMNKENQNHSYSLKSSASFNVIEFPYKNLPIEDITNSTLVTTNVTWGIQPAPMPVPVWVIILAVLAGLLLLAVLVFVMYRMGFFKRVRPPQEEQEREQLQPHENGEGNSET
T2 sequence (P05106 27-788): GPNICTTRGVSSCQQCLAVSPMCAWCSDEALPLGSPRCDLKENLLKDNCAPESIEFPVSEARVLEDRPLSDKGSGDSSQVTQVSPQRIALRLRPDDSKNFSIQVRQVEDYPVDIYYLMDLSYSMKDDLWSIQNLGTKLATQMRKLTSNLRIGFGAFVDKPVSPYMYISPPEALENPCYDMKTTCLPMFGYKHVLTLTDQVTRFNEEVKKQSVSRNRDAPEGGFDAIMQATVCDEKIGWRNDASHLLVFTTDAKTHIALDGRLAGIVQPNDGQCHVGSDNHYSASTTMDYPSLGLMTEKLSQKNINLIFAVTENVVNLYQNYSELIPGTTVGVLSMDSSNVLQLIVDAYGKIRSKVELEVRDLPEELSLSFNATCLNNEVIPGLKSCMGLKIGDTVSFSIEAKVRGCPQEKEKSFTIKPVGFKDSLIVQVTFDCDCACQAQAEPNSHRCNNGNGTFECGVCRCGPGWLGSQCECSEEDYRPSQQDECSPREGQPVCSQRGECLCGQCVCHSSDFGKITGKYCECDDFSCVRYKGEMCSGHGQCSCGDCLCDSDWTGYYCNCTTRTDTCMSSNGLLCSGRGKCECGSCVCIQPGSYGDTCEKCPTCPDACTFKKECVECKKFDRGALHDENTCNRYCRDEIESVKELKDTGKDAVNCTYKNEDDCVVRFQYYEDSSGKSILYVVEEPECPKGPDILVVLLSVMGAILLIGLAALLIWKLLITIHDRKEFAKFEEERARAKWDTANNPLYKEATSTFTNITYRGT
T1 sequence (P08648 42-894 limits assumed): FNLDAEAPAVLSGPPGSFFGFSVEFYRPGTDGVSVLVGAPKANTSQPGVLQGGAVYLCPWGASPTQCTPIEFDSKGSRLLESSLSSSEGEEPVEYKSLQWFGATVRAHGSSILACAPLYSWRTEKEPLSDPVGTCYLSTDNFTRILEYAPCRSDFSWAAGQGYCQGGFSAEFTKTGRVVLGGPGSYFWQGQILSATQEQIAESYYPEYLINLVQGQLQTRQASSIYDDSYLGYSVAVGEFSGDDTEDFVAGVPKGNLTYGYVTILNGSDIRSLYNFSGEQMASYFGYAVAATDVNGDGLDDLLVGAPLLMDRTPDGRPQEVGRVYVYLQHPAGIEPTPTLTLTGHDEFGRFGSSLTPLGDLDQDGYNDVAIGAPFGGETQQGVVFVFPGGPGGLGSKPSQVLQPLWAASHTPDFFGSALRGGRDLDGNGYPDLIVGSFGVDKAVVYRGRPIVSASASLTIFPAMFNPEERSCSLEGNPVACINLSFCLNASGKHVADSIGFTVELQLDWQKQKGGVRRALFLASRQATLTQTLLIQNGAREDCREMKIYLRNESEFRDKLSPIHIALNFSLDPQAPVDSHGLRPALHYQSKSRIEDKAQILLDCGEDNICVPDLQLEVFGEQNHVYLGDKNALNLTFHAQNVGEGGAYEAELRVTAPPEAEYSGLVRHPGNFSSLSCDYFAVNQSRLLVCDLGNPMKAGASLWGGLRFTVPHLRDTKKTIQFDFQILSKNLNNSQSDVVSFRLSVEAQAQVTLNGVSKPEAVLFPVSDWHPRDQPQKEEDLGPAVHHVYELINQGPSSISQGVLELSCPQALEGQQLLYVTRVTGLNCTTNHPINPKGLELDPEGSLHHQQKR
T1 sequence (P08648 895-1049 limits assumed): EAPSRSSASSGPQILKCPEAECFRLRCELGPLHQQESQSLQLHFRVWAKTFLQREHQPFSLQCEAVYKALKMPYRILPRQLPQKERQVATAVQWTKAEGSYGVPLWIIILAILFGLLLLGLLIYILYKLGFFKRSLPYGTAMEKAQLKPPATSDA
T1 sequence (P05556 21-798): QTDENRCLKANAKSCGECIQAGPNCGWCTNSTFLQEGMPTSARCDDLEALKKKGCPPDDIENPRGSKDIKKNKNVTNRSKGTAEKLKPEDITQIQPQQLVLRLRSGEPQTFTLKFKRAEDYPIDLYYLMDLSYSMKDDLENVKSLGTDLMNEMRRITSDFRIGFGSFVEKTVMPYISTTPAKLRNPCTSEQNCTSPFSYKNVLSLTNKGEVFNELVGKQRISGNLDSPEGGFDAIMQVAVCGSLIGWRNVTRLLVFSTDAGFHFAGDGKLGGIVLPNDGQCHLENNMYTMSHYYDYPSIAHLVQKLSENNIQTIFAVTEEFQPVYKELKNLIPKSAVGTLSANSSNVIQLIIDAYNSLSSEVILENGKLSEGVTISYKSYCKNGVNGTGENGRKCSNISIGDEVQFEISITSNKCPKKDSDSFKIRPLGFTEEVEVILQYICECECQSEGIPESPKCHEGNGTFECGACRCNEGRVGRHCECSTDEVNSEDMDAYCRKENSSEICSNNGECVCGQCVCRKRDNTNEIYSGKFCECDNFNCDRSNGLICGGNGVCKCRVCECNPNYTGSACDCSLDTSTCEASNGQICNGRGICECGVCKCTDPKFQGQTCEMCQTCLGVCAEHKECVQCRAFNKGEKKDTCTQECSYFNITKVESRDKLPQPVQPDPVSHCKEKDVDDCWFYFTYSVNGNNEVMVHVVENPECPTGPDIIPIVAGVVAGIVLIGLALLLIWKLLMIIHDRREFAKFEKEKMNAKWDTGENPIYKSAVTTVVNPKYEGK
Sequence of GP IIb/IIIa (P08514 32-887 limits assumed): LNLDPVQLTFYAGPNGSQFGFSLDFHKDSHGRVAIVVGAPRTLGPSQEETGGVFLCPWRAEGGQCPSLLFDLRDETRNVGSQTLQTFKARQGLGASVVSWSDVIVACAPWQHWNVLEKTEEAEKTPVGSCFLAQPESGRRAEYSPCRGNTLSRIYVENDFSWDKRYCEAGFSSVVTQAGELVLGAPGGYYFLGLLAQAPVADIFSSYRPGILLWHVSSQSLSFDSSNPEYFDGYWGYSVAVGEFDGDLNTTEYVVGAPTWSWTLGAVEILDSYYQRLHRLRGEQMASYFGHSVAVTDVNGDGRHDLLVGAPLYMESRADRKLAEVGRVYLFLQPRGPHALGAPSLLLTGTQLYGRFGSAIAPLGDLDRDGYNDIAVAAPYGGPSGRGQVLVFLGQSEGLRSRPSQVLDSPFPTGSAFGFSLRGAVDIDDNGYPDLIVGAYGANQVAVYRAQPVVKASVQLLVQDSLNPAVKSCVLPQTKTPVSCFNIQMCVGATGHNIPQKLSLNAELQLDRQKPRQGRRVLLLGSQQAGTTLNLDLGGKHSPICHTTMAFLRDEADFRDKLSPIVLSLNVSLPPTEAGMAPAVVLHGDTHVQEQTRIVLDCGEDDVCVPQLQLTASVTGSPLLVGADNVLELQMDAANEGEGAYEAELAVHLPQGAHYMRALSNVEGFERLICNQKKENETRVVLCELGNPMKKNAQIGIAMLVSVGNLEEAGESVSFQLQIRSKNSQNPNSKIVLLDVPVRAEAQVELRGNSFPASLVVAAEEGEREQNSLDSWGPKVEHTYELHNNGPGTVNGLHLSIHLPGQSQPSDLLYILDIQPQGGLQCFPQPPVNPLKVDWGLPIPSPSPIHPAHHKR
Sequence of GP IIb/IIIa (P08514 891-1039 limits assumed): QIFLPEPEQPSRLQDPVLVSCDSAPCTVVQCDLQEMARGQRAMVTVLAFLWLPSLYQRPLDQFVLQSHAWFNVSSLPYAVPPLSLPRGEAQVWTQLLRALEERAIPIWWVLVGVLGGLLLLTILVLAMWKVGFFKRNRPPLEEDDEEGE
Sequence of GP IIb/IIIa (P05106 27-788): as the sequence (P05106 27-788) above

IC50 [1] [nM]	IC50 (GP IIb/IIIa) [nM]	IC50 [2] [nM]	IC50 [3] [nM]	Structure (SMILES)
≤ 90	≤ 1	–	–	O=C(NC[C@H](NS(=O)(=O)c1ccccc1)C(=O)O)c1ccc(N2CCC(NC3=NCCN3)CC2)cc1 [Example 40, (2S)-Benzenesulfonylamino-3-[4-{4-(4.5-dihydro-1H-imidazol-2-ylamino)piperidin-1-yl}benzoyl-amino]propionic acid]
–	–	1600	–	O=C(NC[C@H](NS(=O)(=O)c1ccccc1)C(=O)O)c1ccc(N2CCC(NC3=NCCCN3)CC2)cc1 [Example 3, (2S)-Benzenesulfonylamino-3-[4-{4-(1,4,5,6-tetrahydropyrimidin-2-ylamino)piperidin-1-yl}benzoyl-amino]propionic acid]
≤ 90	≤ 1	–	≤ 1	O=C(NC[C@H](NS(=O)(=O)c1ccccc1)C(=O)O)c1ccc(N2CCC(NC3=NCCCCN3)CC2)cc1 [Example 42, (2S)-Benzenesulfonylamino-3-[4-{4-(4,5,6,7-tetrahydro-1H-[1,3]diazepin-2-ylamino)piperidin-1-yl}-benzoylamino]propionic acid]
–	≤ 1	11500	≤ 1	Nc1ccc(S(=O)(=O)N[C@@H](CNC(=O)c2ccc(N3CCC(NC4=NCCCN4)CC3)c(F)c2)C(=O)O)cc1 [Example 68, (2S)-(4-Aminobenzenesulfonyl)amino-3-[3-fluoro-4-{4-(1,4,5,6-tetrahydropyrimidin-2-ylamino)-piperidin-1-yl}benzoylamino]propionic acid]
–	≤ 1	1300	≤ 1	CCCCS(=O)(=O)N[C@@H](CNC(=O)c1ccc(N2CCC(Nc3nc4ccccc4[nH]3)CC2)cc1)C(=O)O [Example 28, (2S)-Butane-1-sulfonylamino-3-[4-{4-(1H-benzimidazol-2-ylamino)piperidin-1-yl}benzoylamino]-propionic acid]
≤ 90	≤ 1	–	–	CN(C1=NCCCN1)C1CCN(c2ccc(C(=O)NC[C@H](NS(=O)(=O)c3ccccc3)C(=O)O)cc2)CC1 [Example 45, (2S)-Benzenesulfonylamino-3-[4-[4-[{N-methyl-N-(1,4,5,6-tetrahydropyrimidin-2-yl)}amino]-piperidin-1-yl]benzoylamino]propionic acid]
≤ 90	≤ 1	–	≤ 1	O=C(NC[C@H](NS(=O)(=O)c1ccccc1)C(=O)O)c1ccc(N2CCC(NC3=NCCN3)CC2)c(F)c1 [Example 54, (2S)-Benzenesulfonylamino-3-[3-fluoro-4-{4-(4,5-dihydro-1H-imidazol-2-ylamino)piperidin-1-yl}-benzoylamino]propionic acid]
–	–	1600	–	O=C(NC[C@H](NS(=O)(=O)c1ccccc1)C(=O)O)c1ccc(N2CCC(Nc3nc4ccccc4[nH]3)CC2)cc1 [Example 10, (2S)-Benzenesulfonylamino-3-[4-{4-(1H-benzimidazol-2-ylamino)piperidin-1-yl}benzoylamino]-propionic acid]
–	≤ 1	6900	–	O=C(N[C@@H](CNC(=O)c1ccc(N2CCC(Nc3nc4ccccc4[nH]3)CC2)cc1)C(=O)O)OCc1ccccc1 [Example 24, 3-[4-{4-(1H-Benzimidazol-2-ylamino)piperidin-1-yl}benzoylamino]-(2S)-{(benzyloxy-carbonyl)amino}propionic acid]
